{"source": "patent US20230149507A1", "about": "“TREATMENT OF ALT CANCERS” (INSTITUTO DE MEDICINA MOLECULAR JOÃO LOBO ANTUNES, priority 2019, published 2023)", "assay_type_in_all_cases": "cell-based, human", "key": {"U2OS interphase cells": {"tested_on": "U2OS interphase cells", "experiment": "Telomeric DNA FISH, number and area of telomeric foci, RO-3306 control", "conditions": "siCt-transfected cells", "procedure": "FIG. 17. FANCM depletion alters telomeric DNA in interphase U2OS cells. (A) Western blot analysis of FANCM protein levels in U2OS cells transfected and treated with RO-3306 as indicated. Cells were harvested 48 hours after transfection. POLD3, RAD51 and PML levels were also analyzed. Beta Actin and LMB1 serve as loading controls. (B) Quantifications of FACS profiles of cells as in A stained with PI. […] R: RO-3306. (C)) Quantifications of numbers of telomeric foci per nucleus in experiments as in A. Each dot represents an individual nucleus. A total of at least 300 nuclei from three independent experiments were analyzed for each sample. Bars and error bars are means and SDs. P values were calculated with a Mann-Whitney U test. (D) Area distribution of telomeric foci areas in experiments as in C. 3D images were sum projected and areas of individual nuclear FISH signals were measured using DAPI staining to identify nuclei (not shown). A total of at least 300 nuclei from three independent experiments were analyzed for each sample. Areas of telomeric foci (in pixels) are binned into 25 intervals of 5-pixel width (x axis; numbers indicate bin centers) and plotted against frequencies (y axis; %). […] (E) Quantification of cells with at least 5 Large (L) foci in experiments as in C. P values were calculated with a two-tailed Student's t-test. *P<0.05, **P<0.005, ***P<0.001, ****P<0.0001. […]"}, "U2OS cells [1]": {"tested_on": "U2OS cells", "experiment": "PML, RAD51, POLD3 localization at telomeres (IF/FISH), RO-3306 control", "conditions": "RO-3306 treatment", "procedure": "(§1) (A) Quantifications experiments for PML or RAD51 immunostaining combined with telomeric DNA FISH. POLD3 immunostaining combined with RAP1 immunostaining (green); and EdU detection combined with and telomeric DNA FISH. Experiments were performed on U2OS cells transfected with the indicated siRNAs and harvested 48 hours after transfection. Each dot represents an individual nucleus. A total of at least 300 nuclei from three independent experiments were analyzed for each sample. Bars and error bars are means and SDs. P values were calculated with a Mann-Whitney U test. ***P<0.001, ****P<0.0001.\nCells grown on coverslips were incubated in CSK buffer for 7 min on ice. All subsequent treatments were performed at room temperature. Cells were fixed with 4% formaldehyde (Sigma-Aldrich) in 1×PBS for 10 min, permeabilized with CSK buffer for 5 min, and incubated in blocking solution (0.5% BSA, 0.1% Tween-20 in 1×PBS) for 1 h. Coverslips were incubated in blocking solution containing primary antibodies for 1 h, washed three times with 0.1% Tween-20 in 1×PBS for 10 min each, and incubated with secondary antibodies diluted in blocking solution for 50 min. DNA was counterstained with 100 ng/ml DAPI in 1×PBS. For combined IF and DNA FISH, cells were again fixed with 4% formaldehyde in 1×PBS for 10 min, washed three times with 1×PBS, incubated in 10 mM Tris-HCl pH 7.2 for 5 min and then denatured and hybridized with TelC-Cy3 probes as described above. DNA was counterstained with 100 ng/ml DAPI in 0.1 M Tris-HCl pH 7.2, 0.15 M NaCl, 0.08% Tween-20 and coverslips were mounted on slides in Vectashield. […]"}, "U2OS cells [2]": {"tested_on": "U2OS cells", "experiment": "Telomere FISH combined with EdU detection, RO-3306 control", "conditions": "RO-3306 treatment; to lower extents than FANCM depletion", "procedure": "as §1\n24 h after siRNA transfection cells were incubated in 10 μM RO-3306 (Selleckchem). 21.5 h later 10 μM EdU (Thermo Fisher Scientific) was added to the culture medium, followed by a 2.5 h incubation. Cells were first stained as for DNA FISH using the TelC-Cy3 probe and then washed twice with 1×PBS followed by EdU detection using the Click-iT EdU Alexa Fluor 488 Imaging Kit (Thermo Fisher Scientific) according to the manufacturer's instructions. DNA was counterstained with 100 ng/ml DAPI in 1×PBS and coverslips were mounted on slides in Vectashield. Image acquisition and analysis were as for DNA FISH."}, "[3]": {"tested_on": "U-2 OS, GM847 and Saos-2 ALT cell lines", "experiment": "C-circle assay of cells treated with PIP-199", "conditions": "0.5 μM PIP-199 for 72 h vs DMSO", "description": "(a) Schematic of MM2-tamoxifen (40HT)-inducible ER fusion protein-mediated inhibition of the FANCM-BTR complex interaction. […] (c) Tukey boxplots of TIFs in U-2 OS cells expressing MM2-ER or FF>AA-ER fusion proteins in the presence or absence of 40HT. Out of 3 experiments, n=150 cells scored per treatment, **p<0.005, Mann-Whitney test. (d) Representative dot blots and quantitation of C-circle assays in U-2 OS cells expressing MM2-ER or FF>AA-ER fusion proteins in the presence or absence of 40HT. C-circles were normalized to non-induced control. Error bars represent mean±SEM from n 3 experiments, *p<0.05, one-sample t-test. (e) Representative colony formation assay of GM847 and HCT116 cells expressing the MM2-ER fusion protein in the presence or absence of 40HT (top panel). Quantitation of the surviving fraction of colonies for ALT (U-2 OS, GM847 and Saos-2) and telomerase-positive (HeLa and HCT116) cell lines expressing MM2-ER or FF>AA-ER fusion proteins (bottom panel). Colony counts were normalized to non-induced controls. […] (f) Representative dot blots and quantitation of C-circle assays from U-2 OS, GM847, Saos-2, HeLa and HCT116 cells treated with 0.5 μM PIP-199 or vehicle control (DMSO) for 72 h. […] (g) Quantitation of the surviving fraction of colonies from U-2 OS, GM847, Saos-2, HeLa and HCT116 cells treated with PIP-199. […]"}, "[4]": {"tested_on": "U-2 OS, GM847, Saos-2 (ALT), HeLa and HCT116 (telomerase-positive) cells", "experiment": "Clonogenic assay of cells treated with PIP-199", "procedure": "(a) Quantitation of the surviving fraction of colonies from U-2 OS, GM847, Saos-2 (ALT), HeLa and HCT116 (telomerase-positive) cells treated with PIP-199 after 11 days. Colony counts were normalized to DMSO controls. Error bars represent mean±SEM from n=3 experiments, *p<0.05, n.s.=non-significant, Student's t-test.\nClonogenic assays were performed as described in Franken et al., 2006, with cells plated at 1,000 cells/10 cm dish with or without 200 nM 4-hydroxytamoxifen (Sigma Aldrich), which was replenished on days 4 and 7. For cells treated with PIP-199 (Aobious #AOB33732, CAS No: 622795-76-0), cells were plated at 300 cells/well in 6-well plates, and treated with 0-10 μM of drug in dimethyl sulfoxide (DMSO). Cells were left to grow for 11 days. Plates were washed with 1×PBS, then fixed and stained with 0.5% (w/v) crystal violet in 1 part acetic acid, 7 parts methanol for 2 h at room temperature. Plates were then washed with tap water and left to air dry. Colonies on each plate were counted and the plating efficiency and surviving fraction calculated."}, "HeLa cells [5]": {"tested_on": "HeLa cells", "experiment": "FACS cell cycle analysis of FANCM-depleted HeLa cells with added agents", "conditions": "FANCM-depleted HeLa cells; hydroxyurea followed by block release", "quoted_text": "When indicated, cells were incubated with 1 μM camptothecin (Sigma-Aldrich) for 3 hours, 0.2 mM hydroxyurea (Sigma-Aldrich) for 16 h, 20 μM BIBR 1532 (Merck Millipore) for 7 days, and 10 μM RO-3306 (Selleckchem) for 18 h. […] For fluorescence-activated cell sorting, cells were trypsinized and pelleted by centrifugation at 500 g at 4° C. for 5 min. Cell pellets were either left untreated for viability assays or fixed in 70% ethanol at −20° C. for 30 min and treated with 25 μg/ml RNaseA (Sigma-Aldrich) in 1×PBS at 37° C. for 20 min. Cells were then washed in 1×PBS and stained with 20 μg/ml propidium iodide (Sigma-Aldrich) in 1×PBS at 4° C. for 10 min. Flow cytometry was performed on a BD FACSCalibur or a BD Accuri C6 (BD Biosciences). Data were analyzed using FlowJo software."}, "HeLa cells [6]": {"tested_on": "HeLa cells", "experiment": "Western blot of pS33 (RPA32 phosphorylated at serine 33)", "conditions": "FANCM-depleted HeLa cells", "quoted_text": "HeLa cervical cancer, HT1080 fibrosarcoma, and HEK293 embryonic kidney cells were purchased from ATCC. […] HeLa, HT1080, HEK293, U2OS, and WI-38 VA13 cells were cultured in high glucose DMEM, GlutaMAX (Thermo Fisher Scientific) supplemented with 10% tetracycline-free fetal bovine serum (Pan BioTech) and 100 U/ml penicillin-streptomycin (Thermo Fisher Scientific). HuO9, Saos2, HOS and SKNAS cells were cultured in high glucose DMEM/F12, GlutaMAX (Thermo Fisher Scientific), supplemented with 10% tetracycline-free fetal bovine serum (Pan BioTech), 100 U/ml penicillin-streptomycin (Thermo Fisher Scientific) and non-essential amino acids (Thermo Fisher Scientific). Mycoplasma contaminations were tested using the VenorGeM Mycoplasma PCR Detection Kit (Minerva Biolabs) according to the manufacturer's instructions. When indicated, cells were incubated with 1 μM camptothecin (Sigma-Aldrich) for 3 hours, 0.2 mM hydroxyurea (Sigma-Aldrich) for 16 h, 20 μM BIBR 1532 (Merck Millipore) for 7 days, and 10 μM RO-3306 (Selleckchem) for 18 h. Cells were trypsinized and pelleted by centrifugation at 500 g at 4° C. for 5 min. […] Supernatant were recovered and protein concentrations were determined by Lowry assay using bovine serum albumin (BSA; Sigma-Aldrich) as standard. […]"}}}
{"smiles": "O=C1NC(=NCc2cccs2)S/C1=C\\c1ccc2ncccc2c1", "note": "[RO-3306]", "values": [{"measurement": "number of telomeric foci", "setting": "U2OS interphase cells; 10 μM RO-3306", "result": "less telomeric foci than control cells"}, {"measurement": "cells with at least 5 large foci", "setting": "U2OS interphase cells; RO-3306-treated", "result": "~15", "unit": "%"}, {"measurement": "number of telomeric PML foci", "setting": "U2OS cells [1]", "result": "did not substantially affect"}, {"measurement": "number of telomeric RAD51 foci", "setting": "U2OS cells [1]", "result": "did not substantially affect"}, {"measurement": "number of telomeric POLD3 foci", "setting": "U2OS cells [1]; less importantly than FANCM depletion", "result": "increased"}, {"measurement": "incidence of telomeric EdU foci", "setting": "U2OS cells [2]", "result": "increased the incidence of telomeric EdU foci"}]}
{"smiles": "CCOC(=O)N1CCN(C(c2ccccn2)c2c(-c3ccccc3)n(O)c3ccccc23)CC1", "note": "(centres unmarked) [PIP-199, 4-[(1-Hydroxy-2-phenyl-1H-indol-3-yl)-pyridin-2-yl-methyl]-piperazine-1-carboxylic acid ethyl ester]", "values": [{"measurement": "C-circles", "setting": "[3]", "result": "increase in C-circles"}, {"measurement": "sensitivity in clonogenic assay (surviving fraction of colonies)", "setting": "[4]; 0-10 μM PIP-199, 11 days, ALT vs telomerase-positive cells", "result": "hypersensitivity of ALT cells"}, {"measurement": "surviving fraction of colonies", "setting": "[4]; normalized to DMSO controls, datapoint exceeding the visible axis of FIG. 11g, cell line not stated", "result": 1.42}]}
{"smiles": "NC(=O)NO", "note": "[HU, hydroxyurea]", "values": [{"measurement": "cell cycle distribution", "setting": "HeLa cells [5]", "result": "did not show an altered cell cycle distribution"}, {"measurement": "pS33 accumulation", "setting": "HeLa cells [6]", "result": "did not promote pS33 accumulation"}]}
